In ChEMBL document CHEMBL1129090, “Potent fluoromethyl ketone inhibitors of recombinant human calpain I” (Bioorg Med Chem Lett, 1996):
*1 amine or outer side, *2 acyl side, *3 side chain or, on linkers, in order; H or OH if unused. Where a SMILES comes first, the peptide text is derived from it. [ ]: non-standard residue; d: D form. The star is where a group is joined. ξ: configuration not given here. ξF = NC(Cc1ccccc1)C(=O)O; Cbz = O=C(OCc1ccccc1)*; Boc = CC(C)(C)OC(=O)*; CO = O=C([*:1])[*:2]; NHBn = c1ccc(CN*)cc1; ξAbu = CCC(N)C(=O)O; CH2F = FC*

Biological target: T1, Calpain-1 catalytic subunit (Homo sapiens) (UniProt P07384)
T1 sequence (whole entry): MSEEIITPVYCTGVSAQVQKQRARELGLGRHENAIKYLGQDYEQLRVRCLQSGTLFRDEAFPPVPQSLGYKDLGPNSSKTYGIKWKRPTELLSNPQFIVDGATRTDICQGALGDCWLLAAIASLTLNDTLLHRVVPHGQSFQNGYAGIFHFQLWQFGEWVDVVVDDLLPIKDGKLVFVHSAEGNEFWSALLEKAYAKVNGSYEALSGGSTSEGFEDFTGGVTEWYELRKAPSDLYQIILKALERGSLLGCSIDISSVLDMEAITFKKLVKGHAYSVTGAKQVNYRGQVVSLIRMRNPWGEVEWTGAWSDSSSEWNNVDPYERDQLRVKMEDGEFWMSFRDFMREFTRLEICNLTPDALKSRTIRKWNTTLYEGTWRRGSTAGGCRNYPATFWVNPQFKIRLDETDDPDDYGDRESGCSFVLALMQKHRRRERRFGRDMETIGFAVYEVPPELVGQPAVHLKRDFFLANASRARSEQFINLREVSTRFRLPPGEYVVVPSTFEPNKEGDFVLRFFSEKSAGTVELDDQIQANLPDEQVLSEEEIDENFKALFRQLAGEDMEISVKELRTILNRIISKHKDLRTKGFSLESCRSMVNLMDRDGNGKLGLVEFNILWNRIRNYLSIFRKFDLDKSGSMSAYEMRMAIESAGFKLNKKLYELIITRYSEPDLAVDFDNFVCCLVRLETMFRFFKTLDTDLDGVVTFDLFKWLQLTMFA
Experiment: Compound was tested for inhibitory activity against recombinant human Calpain 1

| Compound | K obs / 1 |
| --- | --- |
| CC(C)C[C@H](NC(=O)[C@H]1O[C@@H]1C(=O)O)C(=O)NCCCCN=C(N)N | 4700 M⁻¹ s⁻¹ |
| CC(C)C[C@H](NS(=O)(=O)N1CCOCC1)C(=O)NC(Cc1ccccc1)C(=O)CF (stereo partly specified) | 67200 M⁻¹ s⁻¹ |
| CC(C)C[C@H](NC(=O)OC(C)(C)C)C(=O)NC(Cc1ccccc1)C(=O)CF (stereo partly drawn) (Boc-Leu-[ξF]-CH2F) | 68600 M⁻¹ s⁻¹ |
| CCC(NC(=O)[C@H](CC(C)C)NC(=O)OCc1ccccc1)C(=O)CF (stereo partly drawn) (Cbz-Leu-[ξAbu]-CH2F) | 24200 M⁻¹ s⁻¹ |
| CC(C)C[C@H](NC(=O)OCc1ccccc1)C(=O)NC(Cc1ccccc1)C(=O)CF (stereo partly drawn) (Cbz-Leu-[ξF]-CH2F) | 136000 M⁻¹ s⁻¹ |
| CC(C)C[C@H](NC(=O)NCc1ccccc1)C(=O)NC(Cc1ccccc1)C(=O)CF (stereo partly specified) ({NHBn-CO}-Leu-[ξF]-CH2F) | 67200 M⁻¹ s⁻¹ |
